Test results: ChEMBL document CHEMBL3045190, “Atomic and molecular parameters-based comparative QSAR study on tetrahydroimidazodiazepinone derivatives” (Med Chem Res, 2012)

biological target: Human immunodeficiency virus type 1 reverse transcriptase (Human immunodeficiency virus 1, UniProt Q72547); assay: Binding affinity to Human immunodeficiency virus 1 reverse transcriptase

For `CC1Cn2c(S)nc3cc(Cl)cc(c32)CN1CC1CCC1` (centres undefined), which pEC50 is on record?
The pEC50 was 7.37.

For `C=C(C)CN1Cc2cc(Cl)cc3[nH]c(=O)n(c23)CC1C` (centres undefined), which pEC50 is on record?
The pEC50 was 5.33.

`CC(C)=CCN1Cc2cc(Cl)c(Cl)c3nc(S)n(c23)C[C@@H]1C` was tested. Which pEC50 did it give?
The pEC50 was 7.6.

With `C=CCN1Cc2cccc3[nH]c(=O)n(c23)CC1C` (centres undefined) as the compound, how does the pEC50 read?
The pEC50 was 4.23.

Which pEC50 does the source give for `CC(C)=CCN1Cc2cc(Cl)cc3nc(O)n(c23)CC1C` (centres undefined) here?
The pEC50 was 7.6.

`CCC(=CCN1Cc2c(Cl)ccc3[nH]c(=S)n(c23)CC1C)CC` (centres undefined) was tested. Which pEC50 did it give?
Its pEC50 is 8.29.

For `CC(C)=CCN1Cc2c(Br)ccc3nc(S)n(c23)C[C@@H]1C`, which pEC50 is on record?
The pEC50 was 8.52.

Which pEC50 does the source give for `CCC(=CCN1Cc2cc(C)cc3nc(O)n(c23)C[C@@H]1C)CC` here?
The pEC50 was 6.51.

With `CC(C)=CCN1Cc2cc(C)cc3[nH]c(=S)n(c23)CC1C` (centres undefined) as the compound, how does the pEC50 read?
The pEC50 was 6.1.

For `CC(C)=CCN1Cc2cccc3[nH]c(=S)n(c23)CC1C` (centres undefined), which pEC50 is on record?
Its pEC50 is 7.36.

For `C=C(C)CN1Cc2cccc3[nH]c(=O)n(c23)CC1C` (centres undefined), which pEC50 is on record?
Its pEC50 is 4.85.

For `CC(C)=CCN1Cc2c(Cl)ccc3[nH]c(=S)n(c23)C[C@@H]1C` [TIVIRAPINE], which pEC50 is on record?
The pEC50 was 8.34.

Which pEC50 does the source give for `CCC(=CCN1Cc2cc(Cl)cc3nc(S)n(c23)CC1C)CC` (centres undefined) here?
The pEC50 was 7.82.

For `CC(C)=CCN1Cc2c(C)ccc3nc(S)n(c23)C[C@@H]1C`, which pEC50 is on record?
Its pEC50 is 7.85.

`C=C(C)CN1Cc2cc(Cl)cc3[nH]c(=S)n(c23)CC1C` (centres undefined) was tested. Which pEC50 did it give?
The pEC50 was 6.35.

With `CC(C)=CCN1Cc2cccc3nc(O)n(c23)CC1C` (centres undefined) as the compound, how does the pEC50 read?
The pEC50 was 5.38.

For `CCCN1Cc2cccc3[nH]c(=S)n(c23)CC1C` (centres undefined), which pEC50 is on record?
Its pEC50 is 6.62.

With `CC1Cn2c(S)nc3cc(Cl)cc(c32)CN1CCC1CC1` (centres undefined) as the compound, how does the pEC50 read?
The pEC50 was 5.66.

With `CC(C)=CCN1Cc2cc(Cl)cc3nc(S)n(c23)CC1C` (centres undefined) [TIBO] as the compound, how does the pEC50 read?
The pEC50 was 7.04.
